The record followed here is PubChem BioAssay (NCI).

Among the test systems are KM12 colon; RXF 393 renal; SNB-75 CNS; SNB-19 CNS; HS 578T breast; T-47D breast; LOX IMVI melanoma; SW-620 colon; HOP-62 NSCLC; SR leukemia.
Holding throughout (assay): inhibition of tumour cell growth, NCI panel, 48 h

SMILES strings stand for the structures.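 96-well plates; 48 h exposure; 5 concentrations. Endpoints by linear interpolation between flanking doses. Not reached: highest tested concentration assigned. At the TGI there is no net growth.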

In the case of `Cc1nc2ccc(Cl)cc2c2c1CCN2c1ccccc1`, the TGI in the test with KM12 colon was 39.1 µM; in the test with RXF 393 renal it was 18.6 µM; in the test on SNB-75 CNS it was more than 100 µM; in the test on SNB-19 CNS it was 78.5 µM; in the test on HS 578T breast, 55.7 µM; in the test on T-47D breast it was 36.3 µM. The TGI with LOX IMVI melanoma was 22.3 µM; with SW-620 colon it was 63.9 µM; in the test with HOP-62 NSCLC, 83.8 µM; in the test with SR leukemia, 36.3 µM.
As to `CC(C)(C)OC(=O)n1cc(C2CN(O)C(=O)C23CCC(=O)N3Cc2ccccc2)c2ccccc21` (stereo not given), the TGI in the test on KM12 colon, in the test on RXF 393 renal, with SNB-75 CNS, in the test on SNB-19 CNS, in the test with HS 578T breast and with T-47D breast was more than 100 µM each time. Besides, the TGI is 55.3 µM in the test on LOX IMVI melanoma, more than 100 µM in the test on SW-620 colon, more than 100 µM with HOP-62 NSCLC and more than 100 µM in the test on SR leukemia.
Consider `Cc1cc2c(c(=O)n1C)SCC2`, for which the TGI in the test with KM12 colon, with RXF 393 renal, with SNB-75 CNS, in the test on SNB-19 CNS, in the test with HS 578T breast and in the test with T-47D breast was more than 100 µM throughout. Also, the TGI in the test with LOX IMVI melanoma, in the test with SW-620 colon, with HOP-62 NSCLC and in the test with SR leukemia was more than 100 µM in each case.
Consider `Cc1ccc(-c2n[nH]c(=O)n2/N=C\c2ccccc2)cc1`, for which the TGI in the test with KM12 colon is more than 100 µM; in the test on RXF 393 renal it was more than 81.5 µM; in the test with SNB-75 CNS it was 80.3 µM; in the test on SNB-19 CNS, more than 100 µM; in the test on HS 578T breast it was 81.3 µM; in the test with T-47D breast it was more than 100 µM. Moreover, the TGI in the test on LOX IMVI melanoma was more than 100 µM; in the test with SW-620 colon it was more than 100 µM; with HOP-62 NSCLC it was 62.1 µM; with SR leukemia it was more than 100 µM.
As for `COc1ccc(-c2cc(C(O)C3CCCCN3)c3ccccc3n2)cc1` (stereo not given), the TGI in the test on KM12 colon came to 15.3 µM; in the test on RXF 393 renal, 11.3 µM; in the test with SNB-75 CNS, 17.1 µM; with SNB-19 CNS, 28.1 µM; in the test with HS 578T breast, 40.3 µM; with T-47D breast it was 14.1 µM. In addition, the TGI in the test with LOX IMVI melanoma is 16 µM; in the test on SW-620 colon, 25.2 µM; with HOP-62 NSCLC, 24.3 µM; with SR leukemia it was 1.46 µM.
As for `CCCNc1ncnc2[nH]ncc12`, the TGI with KM12 colon, in the test with RXF 393 renal, with SNB-75 CNS, in the test on SNB-19 CNS, with HS 578T breast and in the test with T-47D breast was more than 100 µM each time. Further, the TGI in the test with LOX IMVI melanoma, in the test on SW-620 colon, in the test on HOP-62 NSCLC and in the test with SR leukemia was more than 100 µM in each case.
On to `C(/Cc1ccc2c(c1)OCO2)=N\NC1=NCCCN1`, for which the TGI in the test with KM12 colon was more than 100 µM; in the test with RXF 393 renal it was more than 100 µM; in the test on SNB-75 CNS, 81.1 µM; in the test on SNB-19 CNS, more than 100 µM; in the test on HS 578T breast it was more than 100 µM; in the test with T-47D breast it was more than 100 µM. For the same compound, the TGI in the test on LOX IMVI melanoma was more than 100 µM; with SW-620 colon it was more than 100 µM; in the test on HOP-62 NSCLC it was more than 100 µM; in the test on SR leukemia, 70.2 µM.
`Cc1ccc(/C(O)=C/c2nc3ccc([N+](=O)[O-])cc3nc2/C=C(\O)c2ccc(C)cc2)cc1`: the TGI in the test with KM12 colon is more than 100 µM; with RXF 393 renal, more than 77.5 µM; in the test with SNB-75 CNS it was 36.8 µM; with SNB-19 CNS, more than 77.1 µM; with HS 578T breast, more than 91.4 µM; in the test with T-47D breast, more than 100 µM. For the same compound, the TGI was more than 100 µM in the test on LOX IMVI melanoma, more than 100 µM in the test on SW-620 colon, 75.8 µM in the test with HOP-62 NSCLC and more than 100 µM in the test with SR leukemia.
Take `Cn1c2ccccc2n2c3ncccc3c(=S)c(C#N)c12`: the TGI in the test on KM12 colon, with RXF 393 renal, with SNB-75 CNS, in the test on SNB-19 CNS, in the test on HS 578T breast and in the test on T-47D breast was more than 100 µM throughout. The TGI in the test with LOX IMVI melanoma, with SW-620 colon, in the test with HOP-62 NSCLC and in the test on SR leukemia was more than 100 µM each time.
Take `CCOC(=O)C1CCCCN1CCc1c[nH]c2ccccc12` (stereo not given): the TGI in the test on KM12 colon is more than 100 µM; in the test with RXF 393 renal, more than 100 µM; in the test with SNB-75 CNS, more than 100 µM; in the test on SNB-19 CNS it was more than 100 µM; in the test on HS 578T breast, more than 100 µM; in the test with T-47D breast, 97.1 µM. For the same compound, the TGI in the test on LOX IMVI melanoma, in the test with SW-620 colon, with HOP-62 NSCLC and in the test on SR leukemia was more than 100 µM throughout.
